# According to US20240067668A1, “HETEROARYL DERIVATIVE COMPOUND AND USE THEREOF” (VORONOI INC., priority 2020, published 2024):
# Experiments:
# [1] = test system: BaF3-EGFR (Del19/T790M/C797S) cells; experiment: Inhibitory activity on Ba/F3 cell proliferation (CellTiter-Glo, 72 hours); assay type: cell-based; conditions: Ba/F3 cells expressing EGFR Del19/T790M/C797S
# Procedure: (§1) The following experiments were performed to evaluate the inhibitory activity of the compound represented by Chemical Formula 1 according to the present invention on the proliferation of Ba/F3 cells expressing EGFR mutants.
# (§2) BaF3-EGFR (WT) and BaF3-EGFR (Del19/T790M/C797S) cells were seeded in a clear bottom white 96-well plate at a density of 3×10^3/100 μl/well, and then 0.5 μl/well of the culture medium, containing the compounds at 12 concentrations (0.00001-2 mM) serially diluted in 3 folds and the DMSO control, was added to a final concentration of 0.00005-10 μM, followed by culturing in a 37° C. CO2 incubator for 72 hours. After 72 hours, the plates treated with the compounds were taken out, treated with 100 μl/well of CellTiter-Glo® 2.0 Assay (Promega) solution, and mixed well. After mixing well at room temperature for about 10 minutes, […] was measured using a microplate reader. As to Data, GI50 (μM) values were calculated using GraphPad Prism 8.3.0 (GraphPad software Inc., San Diego) as percentages in proportion to vehicle-based treated cells. The result values were calculated as a cell growth rate (%) compared to the control group. A graph was created using the GraphPad Prism version 5.0 program, and GI50 (μM) values were calculated.
# BaF3-EGFR (WT) cells = experiment: as above; assay type: cell-based; conditions: Ba/F3 cells expressing EGFR WT
# Procedure: as §1, §2
structure (smiles),measurement,setting,value
"CN1CCN(c2ccc(Nc3nc(Nc4ccc5nccnc5c4P(C)(C)=O)c4cc[nH]c4n3)c(OCC(F)(F)F)c2)CC1 [Example 7, dimethyl (6-((2-((4-(4-methylpiperazin-1-yl)-2-(2,2,2-trifluoroethoxy)phenyl)amino)-7H-pyrrolo[2,3-d]pyrimidin-4-yl)amino)quinoxalin-5-yl)phosphine oxide]",GI50,[1],> 0.1 µM
same,GI50,BaF3-EGFR (WT) cells,> 0.1 µM
"C[C@@H]1CN(c2cc(OCC(F)(F)F)c(Nc3nc(Nc4ccc5nccnc5c4P(C)(C)=O)c4cc[nH]c4n3)cc2-c2cnn(C)c2)C[C@H](C)O1 [Example 10, (6-((2-((4-((2R, 6S)-2,6-dimethyl-morpholino)-5-(1-methyl-1H-pyrazol-4-yl)-2-(2,2,2-trifluoroethoxy)phenyl)amino)-7H-pyrrolo[2,3-d]pyrimidin-4-yl)amino)quinoxalin-5-yl)dimethyl phosphine oxide]",GI50,[1],≤ 0.05 µM
same,GI50,BaF3-EGFR (WT) cells,> 0.1 µM
"Cc1cc(Nc2nc(Nc3ccc4nccnc4c3P(C)(C)=O)c3cc[nH]c3n2)c(OCC(F)(F)F)cc1N1CCOCC1 [Example 11, dimethyl (6-((2-((5-methyl-4-morpholino-2-(2,2,2-trifluoroethoxy)phenyl)amino)-7H-pyrrolo[2,3-d]pyrimidin-4-yl)amino)quinoxalin-5-yl) phosphineoxide]",GI50,[1],> 0.1 µM
same,GI50,BaF3-EGFR (WT) cells,> 0.1 µM
"Cc1cc(Nc2nc(Nc3ccc4nccnc4c3P(C)(C)=O)c3cc[nH]c3n2)c(OCC(F)(F)F)cc1N1CCC(N2CCOCC2)CC1 [Example 12, dimethyl (6-((2-((5-methyl-4-(4-morpholino-piperidin-1-yl)-2-(2,2,2-trifluoroethoxy)phenyl)amino)-7H-pyrrolo[2,3-d]pyrimidin-4-yl)amino)quinoxalin-5-yl) phosphineoxide]",GI50,[1],> 0.1 µM
same,GI50,BaF3-EGFR (WT) cells,> 0.1 µM
"CN1CCN(c2cc(OCC(F)(F)F)c(Nc3nc(Nc4cnc5ccccc5c4P(C)(C)=O)c4cc[nH]c4n3)cc2-c2cnn(C)c2)CC1 [Example 14, dimethyl (3-((2-((5-(1-methyl-1H-pyrazol-4-yl)-4-(4-methylpiperazin-1-yl)-2-(2,2,2-trifluoroethoxy)phenyl)amino)-7H-pyrrolo[2,3-d]pyrimidin-4-yl)amino)quinolin-4-yl)phosphine oxide]",GI50,[1],> 0.1 µM
same,GI50,BaF3-EGFR (WT) cells,> 0.1 µM
"Cn1cc(-c2cc(Nc3nc(Nc4ccc5nccnc5c4P(C)(C)=O)c4cc[nH]c4n3)ccc2N2CCC(N3CCOCC3)CC2)cn1 [Example 40, dimethyl (6-((2-((3-(1-methyl-1H-pyrazol-4-yl)-4-(4-morpholino-piperidin-1-yl)phenyl)amino)-7H-pyrrolo[2,3-d]pyrimidin-4-yl)amino)quinoxalin-5-yl) phosphinexide]",GI50,[1],≤ 0.05 µM
same,GI50,BaF3-EGFR (WT) cells,0.05 to 0.1 µM
"COc1cc(N2CCN(C3CC3)CC2)c(-c2cnn(C)c2)cc1Nc1nc(Nc2ccc3nccnc3c2P(C)(C)=O)c2cc[nH]c2n1 [Example 42, (6-((2-((4-(4-cyclopropyl-piperazin-1-yl)-2-methoxy-5-(1-methyl-1H-pyrazol-4-yl)phenyl)amino)-7H-pyrrolo[2,3-d]pyrimidin-4-yl)amino)quinoxalin-5-yl)dimethyl-phosphine oxide]",GI50,[1],≤ 0.05 µM
same,GI50,BaF3-EGFR (WT) cells,> 0.1 µM
"COc1cc(N2CCN(C)CC2)c(-c2cnn(C(C)C)c2)cc1Nc1nc(Nc2ccc3nccnc3c2P(C)(C)=O)c2cc[nH]c2n1 [Example 49, (6-((2-((5-(1-isopropyl-1H-pyrazol-4-yl)-2-methoxy-4-(4-methyl-piperazin-1-yl)phenyl)amino)-7H-pyrrolo[2,3-d]pyrimidin-4-yl)amino)quinoxalin-5-yl)dimethyl-phosphine oxide]",GI50,[1],> 0.1 µM
same,GI50,BaF3-EGFR (WT) cells,> 0.1 µM
"COc1cc(N2CCN(C)CC2)c(-c2cnn(C)c2)cc1Nc1nc(Nc2ccc3nccnc3c2P(C)(C)=O)c2c(Cl)c[nH]c2n1 [Example 51, (6-((5-chloro-2-((2-methoxy-5-(1-methyl-1H-pyrazol-4-yl)-4-(4-methylpiperazin-1-yl)phenyl)amino)-7H-pyrrolo[2,3-d]pyrimidin-4-yl)amino)quinoxalin-5-yl)dimethyl-phosphine oxide]",GI50,[1],0.05 to 0.1 µM
same,GI50,BaF3-EGFR (WT) cells,> 0.1 µM
COc1cc(N2CCN(C)CC2)c(-c2cnn(C)c2)cc1Nc1nc(Nc2ccc3nccnc3c2P(C)(C)=O)c2c(C#N)c[nH]c2n1 [Example 52],GI50,[1],> 0.1 µM
same,GI50,BaF3-EGFR (WT) cells,> 0.1 µM
"COc1cc(N2CCN(C)CC2)c(-c2cnn(C)c2)cc1Nc1nc(Nc2ccc3nccnc3c2P(C)(C)=O)c2c(C(F)(F)F)c[nH]c2n1 [Example 53, (6-((2-((2-methoxy-5-(1-methyl-1H-pyrazol-4-yl)-4-(4-methyl-piperazin-1-yl)phenyl)amino)-5-(trifluoro-methyl)-7H-pyrrolo[2,3-d]pyrimidin-4-yl)amino)quinoxalin-5-yl)dimethyl-phosphine oxide]",GI50,[1],> 0.1 µM
same,GI50,BaF3-EGFR (WT) cells,> 0.1 µM
"COc1cc(N2CCC(N3CCN(C)CC3)CC2)ccc1Nc1nc(Nc2ccc3nccnc3c2P(C)(C)=O)c2cc[nH]c2n1 [Example 57, (6-((2-((2-methoxy-4-(4-(4-methylpiperazin-1-yl)piperidin-1-yl)phenyl)amino)-7H-pyrrolo[2,3-d]pyrimidin-4-yl)amino)quinoxalin-5-yl)dimethyl-phosphine oxide]",GI50,[1],0.05 to 0.1 µM
same,GI50,BaF3-EGFR (WT) cells,0.05 to 0.1 µM
"CN1CCN(C2CCN(c3ccc(Nc4nc(Nc5ccc6nccnc6c5P(C)(C)=O)c5cc[nH]c5n4)cc3)CC2)CC1 [Example 58, dimethyl (6-((2-((4-(4-(4-methylpiperazin-1-yl)piperidin-1-yl)phenyl)amino)-7H-pyrrolo[2,3-d]pyrimidin-4-yl)amino)quinoxalin-5-yl)phosphine oxide]",GI50,[1],0.05 to 0.1 µM
same,GI50,BaF3-EGFR (WT) cells,> 0.1 µM
"COc1cc(N2CCC(N3CCN(C)CC3)CC2)c(C)cc1Nc1nc(Nc2ccc3nccnc3c2P(C)(C)=O)c2sccc2n1 [Example 59, (6-((2-((2-methoxy-5-methyl-4-(4-(4-methylpiperazin-1-yl)piperidin-1-yl)phenyl)amino)thieno [3,2-d]pyrimidin-4-yl)amino)quinoxalin-5-yl)dimethyl-phosphine oxide]",GI50,[1],> 0.1 µM
same,GI50,BaF3-EGFR (WT) cells,> 0.1 µM
"COc1cc(N2CCC(N3CCN(C)CC3)CC2)c(C)cc1Nc1cc(Nc2ccc3nccnc3c2P(C)(C)=O)c2cc[nH]c2n1 [Example 63, (6-((6-((2-methoxy-5-methyl-4-(4-(4-methylpiperazin-1-yl)piperidin-1-yl)phenyl)amino)-1H-pyrrolo[2,3-b]pyridin-4-yl)amino)quinoxalin-5-yl)dimethyl-phosphine oxide]",GI50,[1],> 0.1 µM
same,GI50,BaF3-EGFR (WT) cells,> 0.1 µM
"COc1cc(N2CCC(N3CCN(C)CC3)CC2)ccc1Nc1cc(Nc2ccc3nccnc3c2P(C)(C)=O)c2cc[nH]c2n1 [Example 64, (6-((6-((2-methoxy-4-(4-(4-methylpiperazin-1-yl)piperidin-1-yl)phenyl)amino)-1H-pyrrolo[2,3-b]pyridin-4-yl)amino)quinoxalin-5-yl)dimethyl-phosphine oxide]",GI50,[1],> 0.1 µM
same,GI50,BaF3-EGFR (WT) cells,> 0.1 µM
"COc1cc(N2CCC(N3CCN(C)CC3)CC2)cnc1Nc1cc(Nc2ccc3nccnc3c2P(C)(C)=O)c2cc[nH]c2n1 [Example 65, (6-((6-((3-methoxy-5-(4-(4-methylpiperazin-1-yl)piperidin-1-yl)pyridin-2-yl)amino)-1H-pyrrolo[2,3-b]pyridin-4-yl)amino)quinoxalin-5-yl)dimethyl-phosphine oxide]",GI50,[1],> 0.1 µM
same,GI50,BaF3-EGFR (WT) cells,> 0.1 µM
"COc1cc(N2CCC(N3CCN(C)CC3)CC2)c(F)cc1Nc1nc(Nc2ccc3nccnc3c2P(C)(C)=O)c2cc[nH]c2n1 [Example 66, (6-((2-((5-fluoro-2-methoxy-4-(4-(4-methylpiperazin-1-yl)piperidin-1-yl)phenyl)amino)-7H-pyrrolo[2,3-d]pyrimidin-4-yl)amino)quinoxalin-5-yl)dimethyl-phosphine oxide]",GI50,[1],> 0.1 µM
same,GI50,BaF3-EGFR (WT) cells,> 0.1 µM
"COc1cc(N2CCC(N3CCN(C)CC3)CC2)c(C(C)C)cc1Nc1nc(Nc2ccc3nccnc3c2P(C)(C)=O)c2cc[nH]c2n1 [Example 67, (6-((2-((5-isopropyl-2-methoxy-4-(4-(4-methylpiperazin-1-yl)piperidin-1-yl)phenyl)amino)-7H-pyrrolo[2,3-d]pyrimidin-4-yl)amino)quinoxalin-5-yl)dimethyl-phosphine oxide]",GI50,[1],> 0.1 µM
same,GI50,BaF3-EGFR (WT) cells,> 0.1 µM
"COc1cc(N2CCC(N3CCN(C)CC3)CC2)c(C)cc1Nc1nc(Nc2cnc3ccccc3c2P(C)(C)=O)c2cc[nH]c2n1 [Example 90, (3-((2-((2-methoxy-5-methyl-4-(4-(4-methylpiperazin-1-yl)piperidin-1-yl)phenyl)amino)-7H-pyrrolo[2,3-d]pyrimidin-4-yl)amino)quinolin-4-yl)dimethyl-phosphine oxide]",GI50,[1],> 0.1 µM
same,GI50,BaF3-EGFR (WT) cells,> 0.1 µM
"COc1cc(N2CCN(C(C)(C)CF)CC2)c(-c2cnn(C)c2)cc1Nc1nc(Nc2ccc3nccnc3c2P(C)(C)=O)c2cc[nH]c2n1 [Example 109, (6-((2-((4-(4-(1-fluoro-2-methylpropan-2-yl)piperazin-1-yl)-2-methoxy-5-(1-methyl-1H-pyrazol-4-yl)phenyl)amino)-7H-pyrrolo[2,3-d]pyrimidin-4-yl)amino)quinoxalin-5-yl)dimethyl-phosphine oxide]",GI50,[1],≤ 0.05 µM
same,GI50,BaF3-EGFR (WT) cells,> 0.1 µM
